Test results taken from ChEMBL document CHEMBL5131414, “Design, synthesis, and evaluation of phenylpiperazine-phenylacetate derivatives as rapid recovery hypnotic agents” (Bioorg Med Chem Lett, 2022).

How the values were obtained:
Mus musculus [1] = test: Anesthetic activity in mouse assessed as concentration required to induce hypnotic effect; type: functional, organism-based
[2] = target: GABA-A receptor; anion channel (Homo sapiens) (UniProt P14867+P47870+P18507+P28472+P48169+Q99928+Q9UN88+P34903+O00591+O14764+Q8N1C3+P18505+P78334+P47869+P31644+Q16445); test: Inhibition of GABAA receptor (unknown origin) at 50 uM by radioligand receptor binding assay relative to control; type: protein-complex assay
[3] = Toxicity in mouse assessed as lethal dose; settings: in vivo
[4] = Therapeutic index, ratio of LD50 for toxicity in mouse to HD50 for anesthetic activity in mouse; type: organism-based; settings: in vivo, read-out: TI
[5] = Lipophilicity, logP of the compound; type: physicochemical; settings: octanol/water
Rattus norvegicus [6] = test: Anesthetic activity in rat assessed as time duration of loss of righting reflex; type: functional
Rattus norvegicus [7] = test: Anesthetic activity in rat assessed as time to walk at 2 times of HD50 concentration; type: functional
[8] = Toxicity in rat assessed as lethal dose; settings: in vivo
Mus musculus [9] = test: Anesthetic activity in mouse assessed as onset time; type: functional
[10] = Therapeutic index, ratio of LD50 for toxicity in rat to HD50 for anesthetic activity in rat; settings: read-out: TI
[11] = Therapeutic index, ratio of LD50 for toxicity in rabbit to HD50 for anesthetic activity in rabbit; settings: read-out: TI
Mus musculus [12] = test: Anesthetic activity in mouse assessed as time to walk at 2 times of HD50 concentration; type: functional
Oryctolagus cuniculus [13] = test: Anesthetic activity in rabbit assessed as onset time; type: functional
Oryctolagus cuniculus [14] = test: Anesthetic activity in rabbit assessed as time to walk at 2 times of HD50 concentration; type: functional
Rattus norvegicus [15] = test: Anesthetic activity in rat assessed as onset time; type: functional
Rattus norvegicus [16] = test: Anesthetic activity in rat assessed as concentration required to induce hypnotic effect; type: functional, organism-based
Oryctolagus cuniculus [17] = test: Anesthetic activity in rabbit assessed as concentration required to induce hypnotic effect; type: functional, organism-based
[18] = Toxicity in rabbit assessed as lethal dose; design: species or system Oryctolagus cuniculus; settings: in vivo
Mus musculus [19] = test: Anesthetic activity in mouse assessed as time duration of loss of righting reflex; type: functional
Oryctolagus cuniculus [20] = test: Anesthetic activity in rabbit assessed as time duration of loss of righting reflex; type: functional
[21] = target: D(3) dopamine receptor (Homo sapiens) (UniProt P35462); test: Inhibition of D3 receptor (unknown origin) at 50 uM by radioligand receptor binding assay relative to control
[22] = target: Sodium-dependent serotonin transporter (Homo sapiens) (UniProt P31645); test: Inhibition of 5-HT transporter (unknown origin) at 50 uM by radioligand receptor binding assay relative to control
[23] = target: Sodium-dependent noradrenaline transporter (Homo sapiens) (UniProt P23975); test: Inhibition of Noradrenaline receptor (unknown origin) at 50 uM by radioligand receptor binding assay relative to control
[24] = target: Sigma intracellular receptor 2 (Homo sapiens) (UniProt Q5BJF2); test: Inhibition of sigma 2 receptor (unknown origin) at 50 uM by radioligand receptor binding assay relative to control
[25] = target: D(2) dopamine receptor (Homo sapiens) (UniProt P14416); test: Inhibition of D2 receptor (unknown origin) at 50 uM by radioligand receptor binding assay relative to control
[26] = target: T1, Alpha-2A adrenergic receptor (Homo sapiens) (UniProt P08913); test: Inhibition of adrenergic alpha 2A receptor (unknown origin) at 50 uM by radioligand receptor binding assay relative to control
T1 sequence (whole entry): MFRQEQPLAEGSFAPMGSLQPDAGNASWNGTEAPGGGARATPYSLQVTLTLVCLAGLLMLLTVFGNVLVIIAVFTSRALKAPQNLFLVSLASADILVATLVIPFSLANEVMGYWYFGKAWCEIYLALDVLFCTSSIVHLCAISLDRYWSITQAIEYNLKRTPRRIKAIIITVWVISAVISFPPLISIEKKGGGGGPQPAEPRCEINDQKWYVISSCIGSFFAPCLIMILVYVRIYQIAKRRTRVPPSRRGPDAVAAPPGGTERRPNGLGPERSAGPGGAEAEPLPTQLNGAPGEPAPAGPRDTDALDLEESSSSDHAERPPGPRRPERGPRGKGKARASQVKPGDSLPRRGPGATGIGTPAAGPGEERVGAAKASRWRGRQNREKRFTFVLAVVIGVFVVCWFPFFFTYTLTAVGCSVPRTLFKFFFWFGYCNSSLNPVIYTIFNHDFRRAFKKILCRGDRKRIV

[27] = target: Sigma non-opioid intracellular receptor 1 (Homo sapiens) (UniProt Q99720); test: Inhibition of sigma 1 receptor (unknown origin) at 50 uM by radioligand receptor binding assay relative to control
[28] = target: Cannabinoid receptor 1 (Homo sapiens) (UniProt P21554); test: Inhibition of CB1 receptor (unknown origin) at 50 uM by radioligand receptor binding assay relative to control
[29] = target: Glutamate [NMDA] receptor (Homo sapiens) (UniProt Q05586+Q12879+Q13224+O15399+O60391+Q14957+Q8TCU5); test: Inhibition of NMDA receptor (unknown origin) at 50 uM by radioligand receptor binding assay relative to control; type: protein-complex assay
[30] = target: Mu-type opioid receptor (Homo sapiens) (UniProt P35372); test: Inhibition of mu opioid receptor (unknown origin) at 50 uM by radioligand receptor binding assay relative to control
[31] = target: 5-hydroxytryptamine receptor 2A (Homo sapiens) (UniProt P28223); test: Inhibition of 5-HT2A receptor (unknown origin) at 50 uM by radioligand receptor binding assay relative to control
[32] = target: T2, 5-hydroxytryptamine receptor 1A (Homo sapiens) (UniProt P08908); test: Inhibition of 5-HT1A receptor (unknown origin) at 50 uM by radioligand receptor binding assay relative to control
T2 sequence (whole entry): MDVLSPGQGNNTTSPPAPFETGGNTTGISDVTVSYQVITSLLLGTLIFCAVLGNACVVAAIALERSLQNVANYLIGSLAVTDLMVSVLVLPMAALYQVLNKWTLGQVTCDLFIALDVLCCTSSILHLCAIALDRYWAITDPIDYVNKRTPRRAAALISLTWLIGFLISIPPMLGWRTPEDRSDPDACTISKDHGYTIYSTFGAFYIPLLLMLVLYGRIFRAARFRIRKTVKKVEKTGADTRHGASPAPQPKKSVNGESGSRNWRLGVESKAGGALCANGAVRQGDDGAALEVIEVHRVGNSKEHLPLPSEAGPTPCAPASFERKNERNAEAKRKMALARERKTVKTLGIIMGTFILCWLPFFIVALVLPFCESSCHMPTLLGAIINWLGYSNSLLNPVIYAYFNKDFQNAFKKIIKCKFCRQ

[33] = target: Cannabinoid receptor 2 (Homo sapiens) (UniProt P34972); test: Inhibition of CB2 receptor (unknown origin) at 50 uM by radioligand receptor binding assay relative to control
Chain of Cannabinoid receptor 2 (Homo sapiens) (P34972 whole entry): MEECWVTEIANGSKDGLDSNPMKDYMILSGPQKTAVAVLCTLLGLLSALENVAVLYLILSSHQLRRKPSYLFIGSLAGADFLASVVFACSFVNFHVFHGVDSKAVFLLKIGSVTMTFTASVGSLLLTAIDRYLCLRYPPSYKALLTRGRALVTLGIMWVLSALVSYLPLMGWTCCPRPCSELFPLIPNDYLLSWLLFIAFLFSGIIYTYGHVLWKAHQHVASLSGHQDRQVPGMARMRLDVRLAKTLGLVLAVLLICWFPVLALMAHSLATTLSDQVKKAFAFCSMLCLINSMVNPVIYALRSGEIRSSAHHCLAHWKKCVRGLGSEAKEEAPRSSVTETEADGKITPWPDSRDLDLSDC

Chain of Sigma intracellular receptor 2 (Homo sapiens) (Q5BJF2 whole entry): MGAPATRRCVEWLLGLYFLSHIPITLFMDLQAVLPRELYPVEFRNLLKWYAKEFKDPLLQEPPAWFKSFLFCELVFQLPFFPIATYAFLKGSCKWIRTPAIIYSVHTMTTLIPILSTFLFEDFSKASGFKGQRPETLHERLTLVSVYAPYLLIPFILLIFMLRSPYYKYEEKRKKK
Chain of Sodium-dependent serotonin transporter (Homo sapiens) (P31645 whole entry, looked up): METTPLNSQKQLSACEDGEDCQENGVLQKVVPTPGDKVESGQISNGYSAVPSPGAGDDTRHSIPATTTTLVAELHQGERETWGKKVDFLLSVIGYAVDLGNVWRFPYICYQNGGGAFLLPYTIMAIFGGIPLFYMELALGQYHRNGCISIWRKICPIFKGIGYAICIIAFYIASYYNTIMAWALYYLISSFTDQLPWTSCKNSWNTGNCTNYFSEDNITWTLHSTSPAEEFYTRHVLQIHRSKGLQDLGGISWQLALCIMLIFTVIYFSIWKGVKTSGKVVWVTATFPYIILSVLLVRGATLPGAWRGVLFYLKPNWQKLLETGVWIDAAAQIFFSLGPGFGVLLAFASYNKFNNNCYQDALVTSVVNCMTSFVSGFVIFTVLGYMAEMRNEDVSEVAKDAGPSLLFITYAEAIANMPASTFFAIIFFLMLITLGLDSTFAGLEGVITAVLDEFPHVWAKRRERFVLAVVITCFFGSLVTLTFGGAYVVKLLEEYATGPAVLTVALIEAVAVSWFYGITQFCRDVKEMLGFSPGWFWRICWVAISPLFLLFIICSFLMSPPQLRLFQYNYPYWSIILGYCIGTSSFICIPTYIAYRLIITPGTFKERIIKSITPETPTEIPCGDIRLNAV
Chain of Sigma non-opioid intracellular receptor 1 (Homo sapiens) (Q99720 whole entry): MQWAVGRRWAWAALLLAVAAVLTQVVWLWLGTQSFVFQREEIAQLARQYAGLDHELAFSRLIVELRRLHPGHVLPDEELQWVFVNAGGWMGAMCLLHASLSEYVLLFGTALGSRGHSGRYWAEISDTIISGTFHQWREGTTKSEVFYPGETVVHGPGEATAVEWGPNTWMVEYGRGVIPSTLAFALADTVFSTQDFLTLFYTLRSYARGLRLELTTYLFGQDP
Chain of D(3) dopamine receptor (Homo sapiens) (P35462 whole entry): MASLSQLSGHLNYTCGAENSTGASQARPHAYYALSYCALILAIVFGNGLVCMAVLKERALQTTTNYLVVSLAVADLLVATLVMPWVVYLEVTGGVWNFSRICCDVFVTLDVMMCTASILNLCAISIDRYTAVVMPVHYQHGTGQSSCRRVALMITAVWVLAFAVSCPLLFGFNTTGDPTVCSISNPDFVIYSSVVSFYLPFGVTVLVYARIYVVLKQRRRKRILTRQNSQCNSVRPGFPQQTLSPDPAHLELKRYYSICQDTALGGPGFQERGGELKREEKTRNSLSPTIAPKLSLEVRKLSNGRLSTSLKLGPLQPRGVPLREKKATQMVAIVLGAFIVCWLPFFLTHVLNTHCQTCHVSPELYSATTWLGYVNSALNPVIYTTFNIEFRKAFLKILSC
Chain of Sodium-dependent noradrenaline transporter (Homo sapiens) (P23975 whole entry): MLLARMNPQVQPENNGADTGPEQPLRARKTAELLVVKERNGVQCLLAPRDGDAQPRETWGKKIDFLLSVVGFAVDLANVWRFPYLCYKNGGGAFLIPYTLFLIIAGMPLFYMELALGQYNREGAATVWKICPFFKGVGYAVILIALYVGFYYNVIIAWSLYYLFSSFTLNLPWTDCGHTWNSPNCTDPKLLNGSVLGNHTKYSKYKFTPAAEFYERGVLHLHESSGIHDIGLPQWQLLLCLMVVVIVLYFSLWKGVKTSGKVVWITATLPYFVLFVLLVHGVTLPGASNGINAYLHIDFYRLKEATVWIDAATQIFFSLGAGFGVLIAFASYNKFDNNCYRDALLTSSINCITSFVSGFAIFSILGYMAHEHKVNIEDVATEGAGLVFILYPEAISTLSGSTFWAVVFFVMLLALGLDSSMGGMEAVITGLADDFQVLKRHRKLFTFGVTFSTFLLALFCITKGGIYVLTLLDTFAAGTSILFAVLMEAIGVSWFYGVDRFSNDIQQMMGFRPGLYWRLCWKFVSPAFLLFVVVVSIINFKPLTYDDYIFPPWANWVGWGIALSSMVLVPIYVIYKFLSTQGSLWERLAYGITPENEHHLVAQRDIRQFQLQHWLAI
Chain of Mu-type opioid receptor (Homo sapiens) (P35372 whole entry): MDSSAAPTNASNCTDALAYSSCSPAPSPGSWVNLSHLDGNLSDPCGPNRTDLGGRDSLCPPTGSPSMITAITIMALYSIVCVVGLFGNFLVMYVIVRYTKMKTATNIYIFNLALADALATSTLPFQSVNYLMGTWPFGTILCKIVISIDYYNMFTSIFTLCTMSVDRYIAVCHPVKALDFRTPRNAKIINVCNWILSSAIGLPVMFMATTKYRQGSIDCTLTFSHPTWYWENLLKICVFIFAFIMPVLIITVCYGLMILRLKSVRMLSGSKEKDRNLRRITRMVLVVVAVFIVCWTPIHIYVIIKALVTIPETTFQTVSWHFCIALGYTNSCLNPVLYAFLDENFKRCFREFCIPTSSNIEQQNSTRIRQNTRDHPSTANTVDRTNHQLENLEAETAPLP
Chain of 5-hydroxytryptamine receptor 2A (Homo sapiens) (P28223 whole entry): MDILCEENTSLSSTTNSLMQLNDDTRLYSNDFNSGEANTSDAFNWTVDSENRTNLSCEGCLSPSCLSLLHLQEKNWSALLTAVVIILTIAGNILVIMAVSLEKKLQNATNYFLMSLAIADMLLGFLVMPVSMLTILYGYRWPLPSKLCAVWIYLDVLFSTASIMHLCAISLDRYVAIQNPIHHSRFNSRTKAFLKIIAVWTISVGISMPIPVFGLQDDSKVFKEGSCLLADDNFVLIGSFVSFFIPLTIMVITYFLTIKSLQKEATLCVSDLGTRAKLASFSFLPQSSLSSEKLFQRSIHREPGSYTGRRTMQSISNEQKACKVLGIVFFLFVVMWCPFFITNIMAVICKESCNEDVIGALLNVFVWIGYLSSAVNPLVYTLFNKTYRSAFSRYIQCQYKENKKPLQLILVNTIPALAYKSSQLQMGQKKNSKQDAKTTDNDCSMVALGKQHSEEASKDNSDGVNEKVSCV
Chain of Cannabinoid receptor 1 (Homo sapiens) (P21554 whole entry): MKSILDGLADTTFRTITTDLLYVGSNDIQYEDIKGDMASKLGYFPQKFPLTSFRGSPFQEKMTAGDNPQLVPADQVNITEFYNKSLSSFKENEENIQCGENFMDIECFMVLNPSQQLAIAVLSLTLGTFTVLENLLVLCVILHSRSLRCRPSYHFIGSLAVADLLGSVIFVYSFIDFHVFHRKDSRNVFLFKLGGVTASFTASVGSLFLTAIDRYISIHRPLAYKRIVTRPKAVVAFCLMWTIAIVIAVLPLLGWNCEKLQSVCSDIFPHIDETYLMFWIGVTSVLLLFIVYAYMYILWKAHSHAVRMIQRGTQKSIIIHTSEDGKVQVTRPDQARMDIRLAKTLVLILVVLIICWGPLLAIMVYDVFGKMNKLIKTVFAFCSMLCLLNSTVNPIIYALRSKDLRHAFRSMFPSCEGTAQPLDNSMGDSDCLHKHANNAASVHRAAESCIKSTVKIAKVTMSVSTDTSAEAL
Chain of D(2) dopamine receptor (Homo sapiens) (P14416 whole entry): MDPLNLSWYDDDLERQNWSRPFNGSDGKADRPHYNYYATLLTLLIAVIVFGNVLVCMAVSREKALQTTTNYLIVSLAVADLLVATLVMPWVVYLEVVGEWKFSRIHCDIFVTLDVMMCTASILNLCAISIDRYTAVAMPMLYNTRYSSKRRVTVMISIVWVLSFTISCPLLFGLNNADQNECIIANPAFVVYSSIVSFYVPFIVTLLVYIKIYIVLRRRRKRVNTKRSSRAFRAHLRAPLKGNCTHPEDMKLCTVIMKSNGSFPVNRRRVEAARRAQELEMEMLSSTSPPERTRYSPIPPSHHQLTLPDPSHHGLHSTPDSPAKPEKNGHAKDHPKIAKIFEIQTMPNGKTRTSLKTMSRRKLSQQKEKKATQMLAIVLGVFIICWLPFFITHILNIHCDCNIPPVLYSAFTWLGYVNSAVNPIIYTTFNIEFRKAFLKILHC

CCCOC(=O)Cc1ccc(OCC(=O)N2CCN(c3cccc(C)c3C)CC2)c(OCC)c1
HD50 (median hypnotic dose) (Mus musculus [1]): 42.5 mg/kg
inhibition [2]: 45.5%
LD50 [3]: 269 mg/kg
selectivity ratio [4]: 6.3
logP [5]: 4.6

CCOC(=O)Cc1ccc(OCC(=O)N2CCN(c3cccc(C(F)(F)F)c3)CC2)c(OCC)c1
HD50 (median hypnotic dose) (Mus musculus [1]): 42.5 mg/kg
inhibition [2]: 44.4%
LD50 [3]: 289 mg/kg
selectivity ratio [4]: 6.8
logP [5]: 4.1

CCOc1cc(CC(=O)OC(C)C)ccc1OCC(=O)N1CCN(c2ccccc2)CC1
HD50 (median hypnotic dose) (Mus musculus [1]): 36.8 mg/kg
inhibition [2]: 54.2%
LD50 [3]: 265 mg/kg
selectivity ratio [4]: 7.2
logP [5]: 3.5

CCCOC(=O)Cc1ccc(OCC(=O)N(CC)CC)c(OC)c1 [PROPANIDID]
Time (Rattus norvegicus [6]): 93.3 s
Time (Rattus norvegicus [7]): 58.7 s
LD50 [8]: 81 mg/kg
Time (Mus musculus [9]): 6.7 s
selectivity ratio [10]: 9.6
selectivity ratio [11]: 14.7
Time (Mus musculus [12]): 56.3 s
Time (Oryctolagus cuniculus [13]): 22.6 s
Time (Oryctolagus cuniculus [14]): 124.5 s
inhibition [2]: 83.2%
Time (Rattus norvegicus [15]): 16.3 s
EC50 (Rattus norvegicus [16]): 8.4 mg/kg
selectivity ratio [4]: 5.6
EC50 (Oryctolagus cuniculus [17]): 5.1 mg/kg
LD50 [18]: 75.4 mg/kg
Time (Mus musculus [19]): 89.6 s
Time (Oryctolagus cuniculus [20]): 265.4 s
logP [5]: 2.1

CCOc1cc(CC(=O)OCC(F)(F)F)ccc1OCC(=O)N1CCN(c2cccc(C)c2C)CC1
HD50 (median hypnotic dose) (Mus musculus [1]): 35.6 mg/kg
inhibition [2]: 32.1%
LD50 [3]: 227 mg/kg
selectivity ratio [4]: 6.4
logP [5]: 4.7

CCCOC(=O)Cc1ccc(OCC(=O)N2CCN(c3ccccc3)CC2)c(OCC)c1
Time (Rattus norvegicus [6]): 92.4 s
Time (Rattus norvegicus [7]): 33.4 s
inhibition [21]: 2.9%
LD50 [8]: 72.9 mg/kg
inhibition [22]: 1.9%
inhibition [23]: 11.5%
inhibition [24]: 7.5%
inhibition [25]: 1.2%
Time (Mus musculus [9]): 6.4 s
selectivity ratio [10]: 10.3
selectivity ratio [11]: 18.1
HD50 (median hypnotic dose) (Mus musculus [1]): 25 mg/kg
inhibition [26]: 5.8%
inhibition [27]: 9.1%
inhibition [28]: 10.8%
Time (Mus musculus [12]): 38.6 s
Time (Oryctolagus cuniculus [13]): 14.5 s
Time (Oryctolagus cuniculus [14]): 81.7 s
inhibition [29]: 4.3%
inhibition [2]: 89.8%
LD50 [3]: 200 mg/kg
inhibition [30]: 4.6%
Time (Rattus norvegicus [15]): 9.6 s
EC50 (Rattus norvegicus [16]): 7.1 mg/kg
selectivity ratio [4]: 8
inhibition [31]: 11.9%
inhibition [32]: 15.2%
EC50 (Oryctolagus cuniculus [17]): 5.2 mg/kg
LD50 [18]: 93.9 mg/kg
Time (Mus musculus [19]): 83.3 s
Time (Oryctolagus cuniculus [20]): 292.9 s
inhibition [33]: 12.6%
logP [5]: 3.6

CCOc1cc(CC(=O)OC(C)C)ccc1OCC(=O)N1CCN(c2cccc(C)c2C)CC1
HD50 (median hypnotic dose) (Mus musculus [1]): 31.4 mg/kg
inhibition [2]: 42.7%
LD50 [3]: 200 mg/kg
selectivity ratio [4]: 6.4
logP [5]: 4.4

CCOc1cc(CC(=O)OCC(F)(F)F)ccc1OCC(=O)N1CCN(c2ccccc2)CC1
Time (Mus musculus [9]): 7.1 s
HD50 (median hypnotic dose) (Mus musculus [1]): 24.8 mg/kg
Time (Mus musculus [12]): 44.9 s
inhibition [2]: 70.6%
LD50 [3]: 193 mg/kg
selectivity ratio [4]: 7.8
Time (Mus musculus [19]): 76.5 s
logP [5]: 3.8

CCCOC(=O)Cc1ccc(OCC(=O)N2CCN(c3ccccc3)CC2)c(OC)c1
HD50 (median hypnotic dose) (Mus musculus [1]): 33.2 mg/kg
inhibition [2]: 35.6%
LD50 [3]: 190 mg/kg
selectivity ratio [4]: 5.7
logP [5]: 3.3

CCOC(=O)Cc1ccc(OCC(=O)N2CCN(c3ccccc3)CC2)c(OCC)c1
HD50 (median hypnotic dose) (Mus musculus [1]): 30.6 mg/kg
inhibition [2]: 22.1%
LD50 [3]: 208 mg/kg
selectivity ratio [4]: 6.8
logP [5]: 3.1
